Active and inactive are the calls of the source.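 Rule for the calls: active = in confirmatory dose-response testing, peak deubiquitinase inhibition of 30% or more; inactive = the rest.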
Target: Ubiquitin carboxyl-terminal hydrolase 28 (Homo sapiens) (UniProt Q96RU2)
Experiment: Ubiquitin-specific peptidase 28 DUB inhibitors, biochemical concentration-dependence assay, validation of primary screening hits (AID 1645866)
Conditions: purified USP28, ubiquitin-rhodamine fluorescence, 30 min

Chain of Ubiquitin carboxyl-terminal hydrolase 28 (Homo sapiens) (Q96RU2 whole entry, looked up): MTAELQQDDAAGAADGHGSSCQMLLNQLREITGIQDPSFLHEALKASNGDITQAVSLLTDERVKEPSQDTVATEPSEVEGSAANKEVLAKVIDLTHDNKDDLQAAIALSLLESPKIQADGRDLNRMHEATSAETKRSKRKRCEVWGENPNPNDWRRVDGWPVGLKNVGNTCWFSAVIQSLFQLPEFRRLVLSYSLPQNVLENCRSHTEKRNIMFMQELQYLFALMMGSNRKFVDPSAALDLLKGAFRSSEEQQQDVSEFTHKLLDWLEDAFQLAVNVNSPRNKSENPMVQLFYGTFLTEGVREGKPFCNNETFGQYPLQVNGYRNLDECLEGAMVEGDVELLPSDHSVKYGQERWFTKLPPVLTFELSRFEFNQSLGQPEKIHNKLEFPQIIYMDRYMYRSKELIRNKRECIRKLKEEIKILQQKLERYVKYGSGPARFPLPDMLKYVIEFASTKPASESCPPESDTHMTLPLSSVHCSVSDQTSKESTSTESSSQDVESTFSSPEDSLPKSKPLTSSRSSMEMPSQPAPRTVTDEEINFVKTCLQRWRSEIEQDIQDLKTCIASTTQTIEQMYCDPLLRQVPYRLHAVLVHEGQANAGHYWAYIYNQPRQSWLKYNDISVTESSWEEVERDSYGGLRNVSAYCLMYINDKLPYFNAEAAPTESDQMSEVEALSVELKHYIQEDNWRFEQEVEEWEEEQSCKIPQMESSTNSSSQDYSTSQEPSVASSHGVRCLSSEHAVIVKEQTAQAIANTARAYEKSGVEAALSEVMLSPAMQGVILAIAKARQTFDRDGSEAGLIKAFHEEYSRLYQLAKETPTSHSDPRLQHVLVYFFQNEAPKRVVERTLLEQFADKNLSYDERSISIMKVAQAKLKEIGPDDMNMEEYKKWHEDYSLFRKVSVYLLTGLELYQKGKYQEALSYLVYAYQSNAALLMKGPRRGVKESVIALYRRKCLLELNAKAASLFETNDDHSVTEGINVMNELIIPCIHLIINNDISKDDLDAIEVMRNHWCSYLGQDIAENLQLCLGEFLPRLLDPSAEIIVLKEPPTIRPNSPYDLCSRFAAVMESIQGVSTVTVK

Row | SMILES | IC50
1 | COc1cccc2c1OCC(C(=O)NCc1ccc(F)cc1)=C2 | 21.6 µM
2 | CC(OC(=O)c1ccc2c(c1)OCCO2)C(=O)NCC1CCCCC1 (stereo not given) | 26.1 µM
3 | CO/C=C/C(=O)c1cc2cnc3c(=N)cc(NC(C)=O)c([nH]1)c23 | > 50 µM (inactive)
4 | Cc1ccc2nc(NC(=O)CSc3nnc(-c4ccncc4)n3C3CC3)sc2c1 | 4.17 µM
5 | Cc1ccc(NC(=O)Cc2nnc3c(-c4nc(C5CC5)no4)cccn23)cc1 | 3.53 µM
6 | CCOc1ccc(NC(=O)Cn2cc(C(=O)c3ccc(Cl)cc3)c(=O)c3cc(OC)ccc32)cc1 | 4.32 µM
7 | c1ccc(-c2ccc(NCc3ccc4c(c3)OCO4)nn2)cc1 | 6.27 µM
8 | O=C(NCc1ccc2c(c1)OCO2)c1cc2c(s1)-c1ccccc1OC2 | 7.07 µM
9 | COc1ccc(-c2ocnc2C(=O)NCc2ccc(F)cc2)cc1 | 8.2 µM
10 | O=S(=O)(Cc1nnc(-c2ccccc2C(F)(F)F)o1)c1ccc(Cl)cc1 | > 50 µM (inactive)
11 | CCN1C[C@@H]2C[C@]2(c2ccccc2OC)C(=O)c2ncccc21 | > 50 µM (inactive)
12 | Cc1ccc(CN2C(=O)c3cc4ccccc4n3CC2(C)C(=O)NCc2ccccc2)o1 (stereo not given) | 44.6 µM
13 | COc1cc(O)c2c(c1)C1=CC(=O)C(O)=C[C@]1(C)OC2=O | 30.1 µM
14 | O=C(Nc1ccc2c(c1)OCCO2)c1cc(CN2CCCC2)on1 | 9.81 µM
15 | CC(=O)c1ccc(Cc2ncc(C(F)(F)F)cc2Cl)s1 | 6.83 µM
16 | O=C(CCc1nnc2n(Cc3ccccc3)c(=O)c3ccccc3n12)N1CCN(c2ccccn2)CC1 | 2.98 µM
17 | Cc1ccc(Cn2c(=O)n(CCC(=O)NCCc3ccccc3)c(=O)c3ccccc32)cc1 | 13 µM
18 | COc1ccc(-c2nc(Cn3nnc(C(=O)Nc4ccc(C)cc4C)c3N)c(C)o2)cc1 | 42.9 µM
19 | COc1ccc(-c2cc3c(=O)n(CC(=O)Nc4ccccc4Cl)ccn3n2)cc1 | 10 µM
20 | CC(=O)Nc1ccc(NC(=O)c2cc(-c3cc(C)cc(C)c3O)n[nH]2)cc1 | 10.8 µM
21 | O=C(Cn1nc2ccc(C(=O)NCc3ccccc3)cn2c1=O)Nc1ccc2c(c1)OCO2 | 33.6 µM
22 | O=C(c1ccsc1)N1CCC2(C1)Nc1cccnc1NC2=NC1CCCC1 (stereo not given) | > 50 µM (inactive)
23 | Clc1cc2nc(N3CCN(c4ccccn4)CC3)c3nncn3c2cc1Cl | 2.3 µM
24 | O=C1CC(O)C(O)c2cccc(O)c21 (stereo not given) | 23.6 µM
25 | O=S(=O)(O)c1cc2cc3ccccc3cc2[nH]1 | > 50 µM (inactive)

Row | SMILES | IC50
26 | O=C(CN1C(=O)NC2(CCCCC2)C1=O)Nc1ccc([N+](=O)[O-])cc1 | 33.2 µM
27 | Oc1ccc(-c2nc3ccc(Cl)cn3c2NC2CCCCC2)cc1 | 23 µM
28 | COC(=O)CC1CC23OC2(C(=O)c2c(O)cccc2C3=O)C(C)O1 (stereo not given) | 3.55 µM
29 | COc1ccc(OC)c(C2CC(=O)Nc3n[nH]c(-c4ccccc4)c32)c1 (stereo not given) | 28.5 µM
30 | COc1ccc(C(=O)Nc2nc(-c3ccc4c(c3)NC(=O)CO4)c(C)s2)cc1OC | 1.72 µM
31 | COc1ccc(CC(=O)Nc2nc(-c3ccco3)c(-c3ccco3)s2)cc1 | > 5 µM (inactive)
32 | Cc1cc(=O)n(CC(=O)Nc2ccccc2F)c(Nc2ccc(F)cc2)n1 | 14.3 µM
33 | CC1(C)Cc2nc3sc4c(=O)n(CC(=O)NCc5ccccc5)cnc4c3cc2CO1 | 32.9 µM
34 | COc1cccc(NC(=O)c2ccc(-c3csc(C)n3)cc2)c1 | 6.69 µM
35 | O=C(COc1ccc(Cl)cc1)NCc1nnc(SCC(=O)NCc2ccc3c(c2)OCO3)o1 | 28.4 µM
36 | CC(=O)Nc1ccc(S(=O)(=O)Nc2ccc(Nc3ccc(-n4cccn4)nn3)cc2)cc1 | 32.8 µM
37 | O=C(COc1ccc(S(=O)(=O)N2CCOCC2)cc1)N1CCC(Cc2ccccc2)CC1 | 12.2 µM
38 | COc1ccc(-c2cc(C(=O)N3CCN(c4ccc([N+](=O)[O-])cc4)CC3)[nH]n2)cc1 | > 50 µM (inactive)
39 | COc1ccccc1NS(=O)(=O)c1cccc(NC(=O)CCc2nc3ccccc3s2)c1 | 13.3 µM
40 | CN1C(=O)COc2ccc(NC(=O)c3cc(-c4ccccc4)on3)cc21 | > 50 µM (inactive)
41 | CN(CCc1ccccc1)c1nccc(N2CCN(C(=O)c3csc(-c4cccnc4)n3)CC2)n1 | > 50 µM (inactive)
42 | CN1CC2CN(C(=O)c3ccc(F)cc3)CCN2Cc2ccccc21 (stereo not given) | > 50 µM (inactive)
43 | Cc1ccc(-c2nc(NC(=O)COc3ccc(Cl)cc3)no2)cc1 | 4.74 µM
44 | CCOC(=O)Nc1ccc(N2CCn3c(nc4ccccc43)C2)cc1OC | > 50 µM (inactive)
45 | O=C(CSc1nnc2n1CCCCC2)Nc1ccc2[nH]c(=O)[nH]c2c1 | 34.8 µM
46 | N#Cc1cccc(NC(=O)Cn2cccc(-c3nc(-c4ccccc4)no3)c2=O)c1 | > 50 µM (inactive)
47 | Cc1ccc(OCCn2c(=N)n(C(C)C)c3ccccc32)cc1 | 2.13 µM
48 | COc1ccc(CCNC(=O)CCCn2c(=O)c3ccccc3n(CC(=O)OCc3ccccc3)c2=O)cc1OC | 16 µM
49 | O=C(NCc1ccc(Br)cc1)c1ccc(-c2cccnc2)nc1 | 21.7 µM
50 | COc1cc(Cl)c(C)cc1NC(=O)Cn1c(=O)n(CC(=O)NCc2ccco2)c(=O)c2ccccc21 | 3.4 µM

Row | SMILES | IC50
51 | O=C(NCc1cccnc1)C1CCN(c2cnc(N3CCCCCC3)nc2)CC1 | 0.0687 µM
52 | CSc1ncccc1C(=O)OCc1ccc(Br)cc1 | 1.98 µM
53 | Nc1c(-c2ccc(Cl)cc2)cnc2cc(-c3ccc(Cl)c(Cl)c3)nn12 | 3.28 µM
54 | Cc1c(C)n(-c2ccccc2)c2ncn(CC(=O)N(C)Cc3ccccc3)c(=O)c12 | > 50 µM (inactive)
55 | COc1ccc(NC(=O)Cn2c(CS(=O)(=O)c3ccc(C)cc3)nc3ccccc32)cc1 | 12.4 µM
56 | CCCCC/C=C/C=C/C(=O)OC1C(O)CC(c2ccc3c(c2O)C(=O)c2c(O)cc4cc(C)cc(O)c4c2C3=O)OC1C (stereo not given) | 14.6 µM
57 | Cc1ccc(C(=O)CCC(=O)OCC(=O)c2ccc3[nH]c(=O)[nH]c3c2)cc1 | 24.1 µM
58 | COc1cc(OC)cc(C(=O)Nc2cnc(-c3ccccc3)nc2)c1 | > 50 µM (inactive)
59 | Cc1ccccc1C(=O)NCCn1cc(SCC(=O)Nc2ccc3c(c2)OCCO3)c2ccccc21 | 35.1 µM
60 | COc1ccc(C(C(=O)NC2CCCCC2)N(C(=O)CCCC(=O)Nc2ccccn2)c2ccccc2C)cc1 (stereo not given) | 17.1 µM
61 | COc1ccc(NS(=O)(=O)c2ccc(NC(=O)Nc3ccc(Cl)cc3)cc2)cc1 | 24.9 µM
62 | O=C(CSc1ncnc2c1oc1ccccc12)NC1CCCC1 | 20.5 µM
63 | O=C(/C=C/c1cnc2ccccc2c1)NCc1ccccc1 | 22.6 µM
64 | Cc1noc(C)c1S(=O)(=O)Nc1ccc(C(=O)Nc2ccc3c(c2)OCCO3)cc1 | 3.82 µM
65 | CCC(CC)n1[nH]c(=O)c2c1NC(=O)CSC2c1ccc2c(c1)OCO2 (stereo not given) | 18.6 µM
66 | N#C/C(=C\c1ccc(OCc2cccc(C(=O)O)c2)cc1)c1ccc(F)cc1 | 17.8 µM
67 | FC(F)(F)c1cccc(Nc2nnc(-c3cccnc3)s2)c1 | 12.1 µM
68 | CC(=O)Nc1cc2cc(-n3cccc3)ccc2oc1=O | 24.9 µM
69 | O=C(c1ccnn1-c1ccc2ccc(-c3ccncc3)cn12)N1CCCC1 | > 50 µM (inactive)
70 | CC1Oc2ccccc2C(=O)N(Cc2ccc([N+](=O)[O-])cc2)C1=O (stereo not given) | 12.5 µM
71 | COc1ccc(CCNC(=O)COc2ncnc3oc(C)c(C)c23)cc1OC | > 50 µM (inactive)
72 | Cc1ccc2[nH]c(=O)c(-c3nc4ccc(C)cn4c3NCc3ccc(F)cc3)cc2c1 | 1.93 µM
73 | CC1=C(C)C(c2c(-c3ccc(C)cc3)[nH]c3ccccc23)N(C(C)(C)C)C1=O (stereo not given) | 2.25 µM
74 | O=C(Nc1ccc(F)cc1F)NC1CCN(c2ccccc2)C1=O (stereo not given) | 21.7 µM
75 | O=c1[nH]c(-c2ccccn2)nc2c1CCN(Cc1cnn(-c3ccccc3)c1)C2 | > 50 µM (inactive)

Reference: PubChem BioAssay AID1645866 (Buhrlage Lab, Dana-Farber Cancer Institute and Novartis …, 2021)
